pIC50: −log10 of the molar value. Like-named read-outs stand apart in the source and are kept apart here.

For orientation: IC50 means the concentration needed to halve the response being measured. Broadly, the pIC50 is the IC50 on a negative log10 scale, so that one unit is a factor of ten.

One experiment has as its target DGAT2 (Homo sapiens (Human), UniProt Q96PD7). The experiment is described as follows: IC50 determination for DGAT2 inhibitors in human hepatocytes ([1,3-14C]-glycerol incorporation into lipids). The format is cell-based. The settings on record: average IC50; cryopreserved human hepatocytes, selective DGAT1 inhibitor (3 μM) in all wells, 3 hour incubation with [1,3-14C]-glycerol; read-out: IC50 (nM) in primary human hepatocyte. The method, then:
For evaluation of the effects of DGAT2 inhibitors in a cell-based setting, cryopreserved human hepatocytes (Lot QOC, Celsis, Chicago, Ill.) were thawed and plated onto type I collagen-coated plates according to the manufacturer's instructions. After 24 hours overnight recovery period, the cells were overlayed with media containing 250 μg/ml Matrigel (BD Biosciences, San Jose, Calif.). The following day, media was aspirated and replaced with serum-free Williams Media E (Life Technologies, Grand Island, N.Y.) containing 400 μM sodium dodecanoate (Sigma-Aldrich, St. Louis, Mo.). Forty minutes later, DGAT2 inhibitors (prepared as 100× stocks in 25% DMSO, 75% Williams' Media E) were added to the desired final concentration. […] After a 20 minute preincubation, 0.2 μCi [1,3-^14C]-glycerol (American Radio Chemicals, St. Louis, Mo.) was added to each well and mixed by gentle pipetting prior to a 3 hour incubation. At this point, media was aspirated and the cells were lysed in isopropyl alcohol:tetrahydrofuran (9:1) prior to centrifugation at 3000 rpm for 5 minutes. Radiolabeled lipids were resolved using a 2-solvent system by thin layer chromatography using standard technique (solvent 1 contained ethyl acetate: isopropyl alcohol: chloroform:methanol:0.25% potassium chloride in water (100:100:100:40.2:36.1, v/v/v/v) and solvent 2 contained hexane: diethyl ether: acetic acid (70:27:3, v/v/v)). After separation, radiolabeled lipids were visualized using a Molecular Dynamics' PhosphorImager system. The half maximal inhibitory concentrations (IC50 values) were determined using Graph Pad Prism (GraphPad Software, Inc., La Jolla, Calif.).

The target in the next experiment is Human DGAT2 (hDGAT2) (Homo sapiens (Human), UniProt Q96PD7). Kind of experiment: In vitro DGAT2 assay, IC50 determination with hDGAT2 membrane fraction. The format is biochemical. The note with it: for pIC50: read-out: DGAT2 IC50. In a few lines:
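CHAPS-solubilized membrane fraction of FLAG-tagged hDGAT2 from baculovirus-infected SF9 cells (0.01 mg/mL) in 100 mM Hepes-NaOH pH 7.4, 20 mM MgCl2, 200 nM methyl arachidonyl fluorophosphonate; compounds pre-incubated 20 min with 0.04% BSA. Reaction 40 min at room temperature, stopped with H3PO4. [^14C]tridecanoylglycerol in organic phase counted; 11-point geometric mean IC50.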

Setting [1] is: geometric mean, background for complete inhibition of DGAT2 obtained with 50 μM (1R,2R)-2-({3′-Fluoro-4′-[(6-fluoro-1,3-benzothiazol-2-yl)amino]-1,1′-biphenyl-4-yl}carbonyl)cyclopentanecarboxylic acid.

Sequence of Human DGAT2 (hDGAT2) (Q96PD7 whole entry): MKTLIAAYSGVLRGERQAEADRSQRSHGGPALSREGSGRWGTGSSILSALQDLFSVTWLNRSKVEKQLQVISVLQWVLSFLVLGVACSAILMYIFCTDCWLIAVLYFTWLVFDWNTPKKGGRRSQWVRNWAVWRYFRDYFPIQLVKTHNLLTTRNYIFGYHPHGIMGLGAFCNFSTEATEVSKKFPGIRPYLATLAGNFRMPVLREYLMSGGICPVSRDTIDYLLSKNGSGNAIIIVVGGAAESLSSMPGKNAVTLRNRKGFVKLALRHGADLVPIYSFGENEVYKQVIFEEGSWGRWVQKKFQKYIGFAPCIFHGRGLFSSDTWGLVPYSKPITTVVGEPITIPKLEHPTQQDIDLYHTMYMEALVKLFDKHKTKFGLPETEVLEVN
Sequence of DGAT2 (Q96PD7 whole entry): as above

For `C[C@H](c1nc2cnc(N3CCC[C@@H](C(=O)N4CCCC4)C3)nc2[nH]1)n1cc(Cl)cn1` [Example 199, ((R)-1-(8-((R)-1-(4-chloro-1H-pyrazol-1-yl)ethyl)-9H-purin-2-yl)piperidin-3-yl)(pyrrolidin-1-yl)methanone], the IC50 at DGAT2 came out at 2.5 nM; at Human DGAT2 (hDGAT2) (geometric mean, background for complete inhibition of DGAT2 obtained with Example 196-A instead of the cyclopentanecarboxylic acid reference, read-out: DGAT2 IC50 (nM), values in the parentheses), 32.9 nM. Also, the negative logarithm of the IC50 (pIC50) at Human DGAT2 (hDGAT2) (setting [1]) is 7.72.

Consider `N#Cc1cnn(C2(c3nc4ccc(N5CCC[C@@H](C(=O)N6CCCC6)C5)nc4[nH]3)CC2)c1` [Example 76, (R)-1-(1-(5-(3-(Pyrrolidine-1-carbonyl)piperidin-1-yl)-3H-imidazo[4,5-b]pyridin-2-yl)cyclopropyl)-1H-pyrazole-4-carbonitrile], for which the IC50 on DGAT2 was found to be 25.1 nM. On Human DGAT2 (hDGAT2) (setting [1]), the negative-log IC50 (pIC50) was 6.64.

Turning to `O=C([C@@H]1CCCN(c2ccc3nc(C4(n5cc(C(F)(F)F)cn5)CC4)[nH]c3n2)C1)N1CCCC1` [Example 78, (R)-Pyrrolidin-1-yl(1-(2-(1-(4-(trifluoromethyl)-1H-pyrazoL-1-yl)cyclopropyl)-3H-imidazo[4,5-b]pyridin-5-yl)piperidin-3-yl)methanone], the concentration for half-maximal inhibition (IC50) at DGAT2 amounted to 9.4 nM. The pIC50 on Human DGAT2 (hDGAT2) (setting [1]) is 7.08.

Turning to `C[C@@H](c1nc2cnc(N3CCC[C@@H](C(=O)N4CCCC4)C3)nc2[nH]1)n1cc(Cl)cn1` [Example 198, ((R)-1-(8-((S)-1-(4-Chloro-1H-pyrazol-1-yl)ethyl)-9H-purin-2-yl)piperidin-3-yl)(pyrrolidin-1-yl)methanone], on DGAT2, the IC50 was found to be 7.8 nM. For the same compound, the pIC50 at Human DGAT2 (hDGAT2) (setting [1]) is 7.37.

Consider `CN(C)C(=O)[C@@H]1CN(c2ccc3nc(-c4ccnc(C5CC5)n4)[nH]c3n2)CC(F)(F)C1` [Example 165, (S)-1-(2-(2-cyclopropylpyrimidin-4-yl)-3H-imidazo[4,5-b]pyridin-5-yl)-5,5-difluoro-N,N-dimethylpiperidine-3-carboxamide], for which the pIC50 at Human DGAT2 (hDGAT2) (setting [1]) is 4.78.

Consider `Cc1ccc(C2(c3nc4ccc(N5CCC[C@@H](C(=O)N6CCCC6)C5)nc4[nH]3)CC2)cc1` [Example 103, (R)-Pyrrolidin-1-yl(1-(2-(1-(p-tolyl)cyclopropyl)-3H-imidazo[4,5-b]pyridin-5-yl)piperidin-3-yl)methanone], for which the negative-log IC50 (pIC50) on Human DGAT2 (hDGAT2) (setting [1]) is 7.13.

In the case of `COc1cccc(C2(c3nc4ccc(N5CCC[C@@H](C(=O)N6CCCC6)C5)nc4[nH]3)CC2)c1` [Example 102, (R)-(1-(2-(1-(3-Methoxyphenyl)cyclopropyl)-3H-imidazo[4,5-b]pyridin-5-yl)piperidin-3-yl)(pyrrolidin-1-yl)methanone], the negative logarithm of the IC50 (pIC50) on Human DGAT2 (hDGAT2) (setting [1]) is 7.00.

`O=C([C@@H]1CCCN(c2ccc3nc(-c4cncc(C5CC5)c4)[nH]c3n2)C1)N1CCCC1` [Example 183, (R)-(1-(2-(5-Cyclopropylpyridin-3-yl)-3H-imidazo[4,5-b]pyridin-5-yl)piperidin-3-yl)(pyrrolidin-1-yl)methanone]: the pIC50 at Human DGAT2 (hDGAT2) (setting [1]) was 7.43.

On to `O=C([C@@H]1CCCN(c2ccc3nc(-c4cccc(Cl)c4)[nH]c3n2)C1)N1CCOCC1` [Example 154, (R)-(1-(2-(3-Chlorophenyl)-3H-imidazo[4,5-b]pyridin-5-yl)piperidin-3-yl)(morpholino)methanone], for which, at Human DGAT2 (hDGAT2), the pIC50 is 7.39.

For the compound `O=C([C@@H]1CCCN(c2ccc3nc(-c4cccc(Cl)c4)[nH]c3n2)C1)N1CCCC1` [Example 41, (R)-(1-(2-(3-Chlorophenyl)-3H-imidazo[4,5-b]pyridin-5-yl)piperidin-3-yl)(pyrrolidin-1-yl)methanone], at Human DGAT2 (hDGAT2) (setting [1]), the pIC50 was 8.34.

In the case of `O=C([C@@H]1CCCN(c2ccc3nc(C4(c5coc(C6CC6)n5)CC4)[nH]c3n2)C1)N1CCCC1` [Example 195, (R)-(1-(2-(1-(2-cyclopropyloxazol-4-yl)cyclopropyl)-3H-imidazo[4,5-b]pyridin-5-yl)piperidin-3-yl)(pyrrolidin-1-yl)methanone], on Human DGAT2 (hDGAT2) (setting [1]), the negative-log IC50 (pIC50) was 6.85.

On to `O=C([C@@H]1CCCN(c2ccc3nc(C4CCC4)[nH]c3n2)C1)N1CCCC1` [Example 53, (R)-(1-(2-Cyclobutyl-3H-imidazo[4,5-b]pyridin-5-yl)piperidin-3-yl)(pyrrolidin-1-yl)methanone], for which the negative logarithm of the IC50 (pIC50) at Human DGAT2 (hDGAT2) (setting [1]) was 5.60.

On to `O=C([C@@H]1CCCN(c2cnc3nc(-c4ccnc(C5CC5)n4)[nH]c3n2)C1)N1CCCC1` [Example 138, (R)-(1-(2-(2-Cyclopropylpyrimidin-4-yl)-1H-imidazo[4,5-b]pyrazin-6-yl)piperidin-3-yl)(pyrrolidin-1-yl)methanone], for which the negative-log IC50 (pIC50) at Human DGAT2 (hDGAT2) (setting [1]) is 7.15.

On to `O=C(Nc1ccccn1)c1nc2ccc(N3CCC[C@@H](C(=O)N4CCCC4)C3)nc2[nH]1` [Example 130, (R)—N-(Pyridin-2-yl)-5-(3-(pyrrolidine-1-carbonyl)piperidin-1-yl)-3H-imidazo[4,5-b]pyridine-2-carboxamide], for which, on Human DGAT2 (hDGAT2) (setting [1]), the pIC50 was 5.72.

As for `O=C([C@@H]1CCCN(c2ccc3nc(-c4cccc(OC(F)F)c4)[nH]c3n2)C1)N1CCOCC1` [Example 155, (R)-(1-(2-(3-(Difluoromethoxy)phenyl)-3H-imidazo[4,5-b]pyridin-5-yl)piperidin-3-yl)(morpholino)methanone], on Human DGAT2 (hDGAT2), the pIC50 is 7.45.

Consider `CC(C)(O)c1cc(-c2nc3ccc(N4CCC[C@@H](C(=O)N5CCCC5)C4)nc3[nH]2)ccn1` [Example 14, (R)-(1-(2-(2-(2-Hydroxypropan-2-yl)pyridin-4-yl)-3H-imidazo[4,5-b]pyridin-5-yl)piperidin-3-yl)(pyrrolidin-1-yl)methanone], for which the pIC50 at Human DGAT2 (hDGAT2) (setting [1]) is 7.14.

For `Cc1cncc(-c2nc3ccc(N4CCC[C@@H](C(=O)N5CCCC5)C4)nc3[nH]2)c1` [Example 33, (R)-(1-(2-(5-Methylpyridin-3-yl)-3H-imidazo[4,5-b]pyridin-5-yl)piperidin-3-yl)(pyrrolidin-1-yl)methanone], on Human DGAT2 (hDGAT2) (setting [1]), the pIC50 is 7.01.

As for `NC(=O)c1cccc(-c2nc3ccc(N4CCC[C@@H](C(=O)N5CCCC5)C4)nc3[nH]2)n1` [Example 172, (R)-6-(5-(3-(Pyrrolidine-1-carbonyl)piperidin-1-yl)-3H-imidazo[4,5-b]pyridin-2-yl)picolinamide], the negative logarithm of the IC50 (pIC50) at Human DGAT2 (hDGAT2) (setting [1]) is 7.08.

As to `O=C([C@@H]1CCCN(c2ccc3nc(-c4cccc(C5(O)CC5)n4)[nH]c3n2)C1)N1CCCC1` [Example 139, (R)-(1-(2-(6-(1-Hydroxycyclopropyl)pyridin-2-yl)-3H-imidazo[4,5-b]pyridin-5-yl)piperidin-3-yl)(pyrrolidin-1-yl)methanone], the negative logarithm of the IC50 (pIC50) on Human DGAT2 (hDGAT2) (setting [1]) is 7.21.

With `Cc1cccc(-c2nc3ccc(N4CCC[C@@H](C(=O)N5CCCC5)C4)nc3[nH]2)c1` [Example 5, (R)-Pyrrolidin-1-yl(1-(2-m-tolyl-3H-imidazo[4,5-b]pyridin-5-yl)piperidin-3-yl)methanone], the negative-log IC50 (pIC50) on Human DGAT2 (hDGAT2) (setting [1]) was 8.08.

As to `C[C@H]1CCN(c2ncc3nc(C4(n5cccn5)CC4)[nH]c3n2)C[C@H]1C(=O)N1CCCC1` [Example 208, ((3S,4S)-1-(8-(1-(1H-pyrazol-1-yl)cyclopropyl)-9H-purin-2-yl)-4-methylpiperidin-3-yl)(pyrrolidin-1-yl)methanone], the pIC50 at Human DGAT2 (hDGAT2) was 4.43.

With `Cc1nc(-c2nc3ccc(N4CCC[C@@H](C(=O)N5CCCC5)C4)nc3[nH]2)cs1` [Example 17, (R)-(1-(2-(2-Methylthiazol-4-yl)-3H-imidazo[4,5-b]pyridin-5-yl)piperidin-3-yl)(pyrrolidin-1-yl)methanone], on Human DGAT2 (hDGAT2) (setting [1]), the pIC50 was 6.93.

Regarding `CC(C)(C)c1nc2ccc(N3CCC[C@@H](C(=O)N4CCCC4)C3)nc2[nH]1` [Example 24, (R)-(1-(2-tert-Butyl-3H-imidazo[4,5-b]pyridin-5-yl)piperidin-3-yl)(pyrrolidin-1-yl)methanone], at Human DGAT2 (hDGAT2) (setting [1]), the negative logarithm of the IC50 (pIC50) is 6.14.

In the case of `O=C([C@@H]1CCCN(c2ccc3nc(-c4ccnc(NC5CC5)n4)[nH]c3n2)C1)N1CCCC1` [Example 15, (R)-(1-(2-(2-(Cyclopropylamino)pyrimidin-4-yl)-3H-imidazo[4,5-b]pyridin-5-yl)piperidin-3-yl)(pyrrolidin-1-yl)methanone], the negative-log IC50 (pIC50) on Human DGAT2 (hDGAT2) (setting [1]) is 7.05.

For `Cc1cnn(C2(c3nc4ccc(N5CCC[C@@H](C(=O)N6CCCC6)C5)nc4[nH]3)CC2)c1` [Example 72], on Human DGAT2 (hDGAT2) (setting [1]), the negative logarithm of the IC50 (pIC50) was 6.98.

`C[C@H]1CO[C@@H](c2ccccn2)CN1c1ccc2nc(-c3cccc(Cl)c3)[nH]c2n1` [Example 177, (2R,5S)-4-(2-(3-Chlorophenyl)-3H-imidazo[4,5-b]pyridin-5-yl)-5-methyl-2-(pyridin-2-yl)morpholine]: the negative-log IC50 (pIC50) on Human DGAT2 (hDGAT2) (setting [1]) is 6.02.

Values taken from patent US9296745B2, “Diacylglycerol acyltransferase 2 inhibitors” (Pfizer Inc., priority 2012, dated 2016).
